Laboratory results reported in EPA's ToxValDB 9.5.
“And” between values parts separate entries of the source, which are not always exact repeats. Equal values may be shown once.

Assays:
Rattus norvegicus [1] = details: short-term; duration: 28 days; oral; gavage; unknown; Wistar; renal
Rattus norvegicus [2] = details: subchronic, M/F
Neovison sp. = details: repeat dose other; oral; Mink
Coturnix japonica = details: repeat dose other; oral
Rattus norvegicus [3] = details: uterotrophic; duration: 3 days; injection; intraperitoneal; Active
Rattus norvegicus [4] = details: subchronic; duration: 90 days; oral; gavage; Blood: Increased alkaline phosphatase + Blood: Increased SGPT + Brain: Decreased weight
Primate = details: inhalation
Mus musculus [5] = details: inhalation
Rattus norvegicus [6] = details: Sprague-Dawley
Rattus norvegicus [7] = details: repeat dose other; oral
Anas platyrhynchos = details: oral
Mus musculus [8] = details: oral, M/F; for NOEL: duration: 2 years, Albino, increased liver weight
Canidae [9] = tested on: Canidae
Mus musculus [10] = details: subchronic; duration: 13 weeks; oral; diet; Testis: Damage
Rattus norvegicus [11] = details: subchronic, oral, Fischer 344
Mus musculus [12] = details: repeat dose other; oral
Canidae [13] = details: oral, capsule, M/F, Histopathological changes in the spleen and bone marrow indicative of anaemia
Rattus norvegicus [14] = details: duration: 2 years, oral, M/F, Crl, Reduced bodyweight gain
Mus musculus [15] = details: oral, drinking water, B6C3F1, immunological
Mus musculus [16] = details: oral, drinking water
[17] = reproduction developmental, duration: 6 days, Macaca Fascicularis
[18] = reproduction developmental, duration: 20 days, F, CD1
[19] = developmental, duration: 11 days, inhalation
[20] = short-term, duration: 4 weeks, inhalation
[21] = subchronic, duration: 90 days, oral, gavage
[22] = chronic, duration: 78 weeks, diet, CD1, Increased incidences of fatty change & hypertrophy in hepatocytes
[23] = duration: 90 days, oral, reduced body weight and neurotoxicity

Q: Which LOAEL (Rattus norvegicus [1]) does the source give for `[Cl][Hg][Cl]` [Mercuric chloride] here?
A: Its LOAEL is 0.015 mg/kg-day.

Q: What about the LOAEL (Rattus norvegicus [2]; injection, subcutaneous, autoimmune effects (autoimmune glomerulonephritis)) of the same compound?
A: The LOAEL was 0.226 mg/kg-day.

Q: What about the LOAEL (Rattus norvegicus [2]; oral, diet, autoimmune effects (autoimmune glomerulonephritis)) of the same compound?
A: The LOAEL was 0.317 mg/kg-day and 0.633 mg/kg-day.

Q: And the NOAEL (Neovison sp.)?
A: Its NOAEL is 1 mg/kg-day.

Q: What about the LOAEL (Coturnix japonica) of the same compound?
A: The LOAEL was 0.9 mg/kg-day.

Q: And the NOAEL (Coturnix japonica)?
A: The NOAEL was 0.45 mg/kg-day.

Q: And the LEL (Rattus norvegicus [3])?
A: The LEL was 1 mg/kg-day.

Q: What does the source list for `CO` [Methanol]?
A: NOEL (Rattus norvegicus [4]): 500 mg/kg-day; NOAEL (Primate; developmental, duration: 120 days, Macaca Fascicularis): > 2360 mg/m3; LOAEL (Primate; [17]): 6550 mg/m3; NOAEL (Primate; [17]): 3930 mg/m3; NOAEL (Primate; reproduction developmental, duration: 120 days, F, Macaca Fascicularis): > 2360 mg/m3; NOAEL (Primate; reproduction developmental, duration: 365 days, generation: F0): > 2360 mg/m3; LOAEL (Mus musculus [5]; developmental, duration: 10 days, CD1): 2620 mg/m3; LOAEL (Mus musculus [5]; developmental, duration: 20 days, CD1): 13100 mg/m3; NOAEL (Mus musculus [5]; reproduction developmental, duration: 18 months, B6C3F1): > 1310 mg/m3; NOAEL (Mus musculus [5]; reproduction developmental, duration: 10 days, F, CD1): > 19700 mg/m3; LOAEL (Mus musculus [5]; [18]): ≤ 19700 mg/m3; NOAEL (Mus musculus [5]; [18]): ≥ 13100 mg/m3; LOAEL (Rattus norvegicus [6]; [19]): ≤ 6550 mg/m3; NOAEL (Rattus norvegicus [6]; [19]): ≥ 1310 mg/m3; LOAEL (Rattus norvegicus [6]; developmental, duration: 19 days, inhalation): ≤ 26200 mg/m3; NOAEL (Rattus norvegicus [6]; reproduction developmental, duration: 11 days, inhalation, F): > 1310 mg/m3; LOAEL (Rattus norvegicus [6]; reproduction developmental, duration: 19 days, inhalation, F): ≤ 26200 mg/m3; NOAEL (Rattus norvegicus [6]; reproduction developmental, duration: 365 days, inhalation, generation: F0): 131 mg/m3; NOAEL (Rattus norvegicus [6]; reproduction developmental, duration: 365 days, inhalation, generation: F1): 131 mg/m3; NOAEL (Rattus norvegicus [6]; reproduction developmental, duration: 365 days, inhalation, generation: F2): 131 mg/m3; LOAEL (Rattus norvegicus [6]; [20]): 6550 mg/m3; NOAEL (Rattus norvegicus [6]; [20]): ≥ 3930 mg/m3; LOAEL (Rattus norvegicus [6]; [21]): 2500 mg/kg-day; NOAEL (Rattus norvegicus [6]; [21]): > 500 mg/kg-day; LOAEL (Rattus norvegicus [7]): 250 mg/kg-day; NOAEL (Rattus norvegicus [7]): 50 mg/kg-day

Q: Which results are given for `[CH3][Hg]/[N]=C(\N)NC#N` [Methyl mercury dicyandiamide]?
A: LOAEL (Anas platyrhynchos): 0.064 mg/kg-day; NOAEL (Anas platyrhynchos): 0.0064 mg/kg-day

Q: Which LOAEL (Mus musculus [8]; [22]) does the source give for `C[C@](C#N)(COc1cc(C#N)ccc1C(F)(F)F)NC(=O)c1ccc(SC(F)(F)F)cc1` [Monepantel] here?
A: Its LOAEL is 5.5 mg/kg-day.

Q: And the NOAEL (Mus musculus [8]; [22])?
A: The NOAEL was 1.8 mg/kg-day.

Q: For `c1ccc(Nc2cccc3ccccc23)cc1` [N-Phenyl-1-naphthylamine], which NOAEL (Canidae [9]; chronic, duration: 36 months, oral, diet, Dog Other) is on record?
A: The NOAEL was 290 mg/kg-day.

Q: With `O=C1CN(/N=C/c2ccc([N+](=O)[O-])o2)C(=O)N1` [Nitrofurantoin] as the compound, how does the NOAEL (Mus musculus [10]) read?
A: Its NOAEL is 59.1 mg/kg-day.

Q: What about the NOEL (Rattus norvegicus [11]; duration: 13 weeks, diet, M/F, Deaths + Body Weight Changes: decrease + Urinalysis: Bright yellow + Absolute Organ Weight: Liver increase + Relative Organ Weight: Liver …) of the same compound?
A: The NOEL was less than 57.6 mg/kg-day.

Q: With `O=[Se]([O-])[O-].[Na+].[Na+]` [Sodium selenite] as the compound, how does the LOAEL (Anas platyrhynchos) read?
A: The LOAEL was 1 mg/kg-day.

Q: And the NOAEL (Anas platyrhynchos)?
A: The NOAEL was 0.5 mg/kg-day.

Q: And the NOEL (Rattus norvegicus [11]; drinking water, F, Deaths + Body Weight Changes: decrease + Water Consumption: decrease + Hematology: Hct increase, Hgb increase, RBC increase + Blood …)?
A: The NOEL was 0.17 mg/kg-day.

Q: What about the NOEL (Rattus norvegicus [11]; drinking water, M/F, Deaths + Body Weight Changes: decrease + Water Consumption: decrease + Hematology: Hct increase, Hgb increase, RBC increase + Blood …) of the same compound?
A: Its NOEL is 0.304 mg/kg-day.

Q: For `[Mo].[O-2].[O-2].[O-2].[O-2]` [Tetraoxomolybdate(2-)], which LOAEL (Mus musculus [12]) is on record?
A: Its LOAEL is 2.6 mg/kg-day.

Q: And the NOAEL (Mus musculus [12])?
A: Its NOAEL is 0.26 mg/kg-day.

Q: Which NOEL (Canidae [13]; chronic, duration: 1 years, Beagle) does the source give for `c1ccc2[nH]c(-c3cscn3)nc2c1` [Thiabendazole] here?
A: Its NOEL is 10 mg/kg-day.

Q: And the NOEL (Canidae [13]; chronic, duration: 1 years, Dog Other)?
A: The NOEL was 10 mg/kg-day.

Q: What about the NOEL (Canidae [13]; duration: 1 year, Beagle) of the same compound?
A: The NOEL was 10 mg/kg-day.

Q: What about the NOEL (Canidae [13]; duration: 1 year, Dog Other) of the same compound?
A: Its NOEL is 10 mg/kg-day.

Q: What about the LOEL (Rattus norvegicus [14]; chronic, diet) of the same compound?
A: The LOEL was 40 mg/kg-day.

Q: What about the NOEL (Rattus norvegicus [14]; chronic, diet) of the same compound?
A: The NOEL was 10 mg/kg-day.

Q: And the LOEL (Rattus norvegicus [14]; feed)?
A: Its LOEL is 40 mg/kg-day.

Q: And the NOEL (Rattus norvegicus [14]; feed)?
A: Its NOEL is 10 mg/kg-day.

Q: Which LOAEL (Mus musculus [15]; chronic, duration: 1 years, M/F) does the source give for `ClC=C(Cl)Cl` [Trichloroethylene] here?
A: The LOAEL was 0.37 mg/kg-day.

Q: What about the LOAEL (Mus musculus [15]; chronic, duration: 30 weeks, F) of the same compound?
A: Its LOAEL is 0.35 mg/kg-day.

Q: And the LOAEL (Mus musculus [15]; developmental, duration: 364 days, M/F)?
A: Its LOAEL is 0.37 mg/kg-day.

Q: And the LOAEL (Mus musculus [16]; chronic, duration: 30 weeks, F, Decreased thymus weight in female B6C3F1 mice)?
A: The LOAEL was 0.35 mg/kg-day.

Q: And the LOAEL (Mus musculus [16]; developmental, M/F, reduced plaque-forming cell (pfc) response, increased delayed-type hypersensitivity in b6c3f1 mice)?
A: Its LOAEL is 0.37 mg/kg-day.

Q: And the LOAEL (Mus musculus [12])?
A: The LOAEL was 7 mg/kg-day.

Q: What about the NOAEL (Mus musculus [12]) of the same compound?
A: Its NOAEL is 0.7 mg/kg-day.

Q: What about the NOEL (Rattus norvegicus [11]; duration: 13 weeks, gavage, M/F, Histopathology: Lung-Pulmonary vasculitis Kidney-Cytomegaly/Karyomegaly, Renal tubular epithelial cell in the inner cortex) of the same compound?
A: The NOEL was 1000 mg/kg-day.

Q: With `CSc1nc2cc(Oc3cccc(Cl)c3Cl)c(Cl)cc2[nH]1` [Triclabendazole] as the compound, how does the NOEL (Mus musculus [8]; Chronic / dietary, feed) read?
A: Its NOEL is 0.27 mg/kg-day.

Q: What about the NOEL (Mus musculus [8]; chronic, diet) of the same compound?
A: Its NOEL is 0.27 mg/kg-day.

Q: `FC(F)F` [Trifluoromethane] was tested. Which LOAEL (Canidae [9]; repeat dose other, inhalation, Beagle) did it give?
A: The LOAEL was greater than 14300 mg/m3.

Q: For `Cc1ccccc1O` [o-Cresol], which LOAEL (Rattus norvegicus [2]; [23]) is on record?
A: Its LOAEL is 150 mg/kg-day.

Q: And the NOAEL (Rattus norvegicus [2]; [23])?
A: Its NOAEL is 50 mg/kg-day.

Q: What about the NOAEL (Neovison sp.) of the same compound?
A: The NOAEL was 219 mg/kg-day.
